Experimental data: ChEMBL document CHEMBL5338788, “Discovery of a New-Generation S-Adenosylmethionine-Noncompetitive Covalent Inhibitor Targeting the Lysine Methyltransferase Enhancer of Zeste Homologue 2” (J Med Chem, 2023)
Activity calls are given as the source filed them. The calls are words filed in the database; no cut-off is given here.

Legend:
[1] = molecular target: Histone-lysine N-methyltransferase EZH2 (Homo sapiens, UniProt Q15910, Y641F); test: Inhibition of N-terminal FLAG-tagged recombinant full-length human EZH2 Y641F mutant in PRC2 complex expressed in baculovirus infected Sf9 cells using H3K27me0 biotin/SAM as substrate preincubated for 10 mins followed by substrate addition measured after 4 hrs by HTRF assay; type: cell-based
[2] = test system: Pfeiffer; test: Antiproliferative activity against human Pfeiffer cells expressing EZH2 […] mutant assessed as inhibition of cell proliferation incubated for 6 days by CCK8 assay; type: functional, cell-based; conditions: 144 h
[3] = test system: KARPAS-422; test: Antiproliferative activity against human KARPAS-422 cells expressing EZH2 Y641N mutant assessed as inhibition of cell proliferation incubated for 6 days by CCK8 assay; type: functional, cell-based; conditions: KARPAS-422, 144 h
[4] = test system: SU-DHL-2; test: Antiproliferative activity against human SUDHL2 cells expressing EZH2 mutant assessed as inhibition of cell proliferation incubated for 6 days by CCK8 assay; type: functional, cell-based; conditions: SU-DHL-2, 144 h
[5] = Antiproliferative activity against human WILL-1 cells expressing wild-type EZH2 assessed as inhibition of cell proliferation incubated for 6 days by CCK8 assay; type: functional, cell-based; conditions: WILL-1, 144 h
[6] = test system: U2932; test: Antiproliferative activity against human U2932 cells expressing wild-type EZH2 assessed as inhibition of cell proliferation incubated for 6 days by CCK8 assay; type: functional, cell-based; conditions: U2932, 144 h
[7] = test system: KARPAS-422; test: Antiproliferative activity against human KARPAS-422 cells expressing EZH2 mutant assessed as inhibition of cell proliferation incubated for 6 days by CCK8 assay; type: functional, cell-based; conditions: time 6.0 day
[8] = test system: Karpas-1106P; test: Antiproliferative activity against human KARPAS-1106P cells expressing wild-type EZH2 assessed as inhibition of cell proliferation incubated for 6 days by CCK8 assay; type: functional, cell-based
[9] = test system: Pfeiffer; test: Antiproliferative activity against human Pfeiffer cells expressing EZH2 mutant assessed as inhibition of cell proliferation incubated for 6 days by CCK8 assay; type: functional, cell-based; conditions: time 6.0 day
[10] = test system: RL; test: Antiproliferative activity against human RL cells expressing EZH2 mutant assessed as inhibition of cell proliferation incubated for 6 days by CCK8 assay; type: functional, cell-based
[11] = test system: OPM-2; test: Antiproliferative activity against human OPM-2 cells expressing wild-type EZH2 assessed as inhibition of cell proliferation incubated for 6 days by CCK8 assay; type: functional, cell-based; conditions: OPM-2, 144 h
[12] = test system: WSUDLCL2; test: Antiproliferative activity against human WSUDLCL2 cells expressing wild-type EZH2 assessed as inhibition of cell proliferation incubated for 6 days by CCK8 assay; type: functional, cell-based; conditions: WSUDLCL2, 144 h
[13] = test system: DB; test: Antiproliferative activity against human DB cells expressing wild-type EZH2 assessed as inhibition of cell proliferation incubated for 6 days by CCK8 assay; type: functional, cell-based; conditions: 144 h
[14] = test system: SU-DHL10; test: Antiproliferative activity against human SU-DHL-10 cells expressing EZH2 mutant assessed as inhibition of cell proliferation incubated for 6 days by CCK8 assay; type: functional, cell-based; conditions: time 6.0 day
[15] = test system: Pfeiffer; test: Downregulation of H3K27me3 level in human Pfeiffer cells at 1 uM incubated for 96 hrs followed by compound washout measured after 48 hrs by Western blot analysis; type: functional, cell-based; conditions: time 144.0 hrs
[16] = Apparent permeability in human Caco-2 cells at 20 uM measured for 35 to 95 mins by LC-MS/MS analysis; type: ADME, cell-based; conditions: time 35-95 min
[17] = test system: HT; test: Antiproliferative activity against human HT cells expressing wild-type EZH2 assessed as inhibition of cell proliferation incubated for 6 days by CCK8 assay; type: functional, cell-based; conditions: 144 h
[18] = Metabolic stability in human liver microsomes assessed as half life preincubated for 10 mins followed by NADPH addition measured upto 60 mins by LC-MS/MS analysis; type: ADME, Microsome; conditions: time < 70 min

Chain of Histone-lysine N-methyltransferase EZH2 (Q15910 whole entry Y641F): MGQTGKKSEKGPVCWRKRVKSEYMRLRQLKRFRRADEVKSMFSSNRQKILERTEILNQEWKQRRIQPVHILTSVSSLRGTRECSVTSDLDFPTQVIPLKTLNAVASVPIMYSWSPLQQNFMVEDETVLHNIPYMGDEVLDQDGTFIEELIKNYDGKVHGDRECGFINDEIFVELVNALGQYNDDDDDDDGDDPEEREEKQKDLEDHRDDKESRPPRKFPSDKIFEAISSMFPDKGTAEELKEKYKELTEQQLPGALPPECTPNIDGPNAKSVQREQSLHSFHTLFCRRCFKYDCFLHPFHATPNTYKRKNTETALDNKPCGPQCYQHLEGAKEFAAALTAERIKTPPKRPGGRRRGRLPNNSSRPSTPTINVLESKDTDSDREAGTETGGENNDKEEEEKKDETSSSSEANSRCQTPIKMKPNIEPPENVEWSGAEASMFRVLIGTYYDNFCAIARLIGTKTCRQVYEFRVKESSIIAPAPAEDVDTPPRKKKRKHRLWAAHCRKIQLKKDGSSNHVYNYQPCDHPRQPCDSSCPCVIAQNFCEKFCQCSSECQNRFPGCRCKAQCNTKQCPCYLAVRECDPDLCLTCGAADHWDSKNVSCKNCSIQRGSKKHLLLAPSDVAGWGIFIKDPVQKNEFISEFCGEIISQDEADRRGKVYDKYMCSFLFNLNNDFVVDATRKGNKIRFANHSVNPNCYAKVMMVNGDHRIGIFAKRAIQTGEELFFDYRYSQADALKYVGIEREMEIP

SMILES	IC50 [1] [nM]	IC50 [2] [nM]	IC50 [3] [nM]	also measured
CCC(=O)NCc1cc(C(=O)NCc2c(C)cc(C)[nH]c2=O)c(C)c(N(CC)C2CCOCC2)c1	137	> 3000	> 3000	
CCN(c1cc(-c2ccc(CN3CCOCC3)cc2)cc(C(=O)NCc2c(C)cc(C)[nH]c2=O)c1C)C1CCOCC1 [TAZEMETOSTAT]		34	294	IC50 [4]: > 3000 nM; IC50 [5]: > 3000 nM; IC50 [6]: > 3000 nM; inhibition [7]: Active; inhibition ([8]; time 6.0 day): Active; inhibition [9]: Active; inhibition ([10]; time 6.0 day): Active; IC50 [11]: > 3000 nM; IC50 [12]: > 3000 nM; IC50 [13]: > 3000 nM; inhibition [14]: Active; Activity [15]: inactive; Papp at 20 µM [16]: 1.06 ×10⁻⁶ cm/s; IC50 [17]: > 3000 nM; half-life [18]: 20.2 min
CC[C@H](C)n1cc(C)c2c(C(=O)NCc3c(C)cc(C)[nH]c3=O)cc(-c3ccc(N4CCNCC4)nc3)cc21				Activity [15]: inactive
CCC(=O)NCc1cc(C(=O)NCc2c(SC)cc(C)[nH]c2=O)c(C)c(N(CC)C2CCOCC2)c1	134	147	708	IC50 [4]: > 3000 nM; IC50 [5]: > 3000 nM; IC50 [6]: > 3000 nM; inhibition [7]: Active; IC50 ([8]; 144 h): > 3000 nM; inhibition [9]: Active; IC50 ([10]; 144 h): > 3000 nM; IC50 [11]: > 3000 nM; IC50 [12]: > 3000 nM; IC50 [13]: > 3000 nM; inhibition [14]: Active; Activity [15]: inactive; IC50 [17]: > 3000 nM
C=CC(=O)NCc1cc(C(=O)NCc2c(OC)cc(C)[nH]c2=O)c(C)c(N(CC)C2CCOCC2)c1	9	314	1440	half-life [18]: 35.3 min
C=C(C)C(=O)Nc1cc(C(=O)NCc2c(C)cc(C)[nH]c2=O)c(C)c(N(CC)C2CCOCC2)c1	38			
CCC(=O)N(C)c1cc(C(=O)NCc2c(C)cc(C)[nH]c2=O)c(C)c(N(CC)C2CCOCC2)c1	50	2530	> 3000	
CC#CC(=O)Nc1cc(C(=O)NCc2c(C)cc(C)[nH]c2=O)c(C)c(N(CC)C2CCOCC2)c1	11			
CCN(c1cc(NC(=O)/C=C/CN2CCOCC2)cc(C(=O)NCc2c(C)cc(C)[nH]c2=O)c1C)C1CCOCC1	21			
C/C=C/C(=O)Nc1cc(C(=O)NCc2c(C)cc(C)[nH]c2=O)c(C)c(N(CC)C2CCOCC2)c1	21			
CCN(c1cc(NC(=O)/C=C/CN(C)C)cc(C(=O)NCc2c(C)cc(C)[nH]c2=O)c1C)C1CCOCC1	36			
C=CC(=O)NCc1cc(C(=O)NCc2c(C)cc(C)[nH]c2=O)c(C)c(N(CC)C2CCOCC2)c1	39	194	542	half-life [18]: 24 min
C=CS(=O)(=O)Nc1cc(C(=O)NCc2c(C)cc(C)[nH]c2=O)c(C)c(N(CC)C2CCOCC2)c1	173			
CCC(=O)Nc1cc(C(=O)NCc2c(C)cc(C)[nH]c2=O)c(C)c(N(CC)C2CCOCC2)c1	38	1950	> 3000	
C=CC(=O)NCc1cc(C(=O)NCc2c(CCC)cc(C)[nH]c2=O)c(C)c(N(CC)C2CCOCC2)c1	4	1350	> 3000	
C=CC(=O)Nc1cc(C(=O)NCc2c(C)cc(C)[nH]c2=O)c(C)c(N(CC)C2CCOCC2)c1	10	974	> 3000	Papp at 20 µM [16]: 0.045 ×10⁻⁶ cm/s; half-life [18]: 9.4 min
C=CC(=O)N(C)c1cc(C(=O)NCc2c(C)cc(C)[nH]c2=O)c(C)c(N(CC)C2CCOCC2)c1	35	195	587	Papp at 20 µM [16]: 0.054 ×10⁻⁶ cm/s; half-life [18]: 12.7 min
